Test results: ChEMBL document CHEMBL1201862, “PubChem BioAssay data set” (2004)
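Where inhibition never reached the appropriate level, the endpoint shown equals the highest concentration tested. Otherwise, values were interpolated linearly from a five-concentration, 48-hour dose response in 96-well plates. At the GI50, growth is halved.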 Calls of active or inactive are those of the source. Rule as the data show it: active = GI50 up to about 1.1 µM and inactive = higher.

Assays:
Assay in all cases: DTP human tumour cell line panel, 48 h
[1] = test system: 786-0
[2] = test system: A498
[3] = test system: A549
[4] = test system: ACHN
[5] = test system: CAKI-1
[6] = test system: CCRF-CEM
[7] = test system: COLO 205
[8] = test system: DLD-1
[9] = test system: DMS-273
[10] = test system: HCC 2998
[11] = test system: HCT-116
[12] = test system: HCT-15
[13] = test system: HL-60
[14] = test system: HOP-18
[15] = test system: HOP-62
[16] = test system: HOP-92
[17] = test system: HT-29
[18] = test system: IGROV-1
[19] = test system: K562
[20] = test system: KM-20L2
[21] = test system: KM12
[22] = test system: LOX IMVI
[23] = test system: LXFL 529
[24] = test system: M14
[25] = test system: M19-MEL
[26] = test system: MOLT-4
[27] = test system: Malme-3M
[28] = test system: NCI-H226
[29] = test system: NCI-H23
[30] = test system: NCI-H460
[31] = test system: NCI-H522
[32] = test system: OVCAR-3
[33] = test system: OVCAR-4
[34] = test system: OVCAR-5
[35] = test system: OVCAR-8
[36] = test system: RPMI-8226
[37] = test system: RXF 393
[38] = test system: RXF 631
[39] = test system: SF-268
[40] = test system: SF-295
[41] = test system: SF-539
[42] = test system: SK-MEL-28
[43] = test system: SK-MEL-5
[44] = test system: SN12C
[45] = test system: SNB-19
[46] = test system: SNB-78
[47] = test system: SR
[48] = test system: SW-620
[49] = test system: TK-10
[50] = test system: U-251
[51] = test system: UACC-257
[52] = test system: UACC-62
[53] = test system: XF498
[54] = test system: DMS-114
[55] = test system: EKVX
[56] = test system: SK-OV-3
[57] = test system: SNB-75
[58] = test system: UO-31

Question: How did the GI50 [1] turn out when CC(=O)OCC1OC(OCc2ccccc2)C(Br)C(OC(C)=O)C1OC(C)=O (centres undefined) was run?
Answer: > 100 µM (inactive)

Question: And the GI50 [2]?
Answer: > 100 µM (inactive)

Question: What about the GI50 [3] of the same compound?
Answer: > 100 µM (inactive)

Question: What about the GI50 [4] of the same compound?
Answer: > 100 µM (inactive)

Question: And the GI50 [5]?
Answer: > 100 µM (inactive)

Question: What about the GI50 [6] of the same compound?
Answer: > 100 µM (inactive)

Question: And the GI50 [7]?
Answer: > 100 µM (inactive)

Question: What about the GI50 [8] of the same compound?
Answer: > 100 µM (inactive)

Question: What about the GI50 [9] of the same compound?
Answer: > 100 µM (inactive)

Question: And the GI50 [10]?
Answer: > 100 µM (inactive)

Question: And the GI50 [11]?
Answer: > 100 µM (inactive)

Question: What about the GI50 [12] of the same compound?
Answer: > 100 µM

Question: And the GI50 [13]?
Answer: > 100 µM (inactive)

Question: And the GI50 [14]?
Answer: > 100 µM (inactive)

Question: What about the GI50 [15] of the same compound?
Answer: > 100 µM (inactive)

Question: What about the GI50 [16] of the same compound?
Answer: > 100 µM (inactive)

Question: What about the GI50 [17] of the same compound?
Answer: > 100 µM (inactive)

Question: What about the GI50 [18] of the same compound?
Answer: > 100 µM (inactive)

Question: What about the GI50 [19] of the same compound?
Answer: > 100 µM (inactive)

Question: And the GI50 [20]?
Answer: > 100 µM (inactive)

Question: And the GI50 [21]?
Answer: > 100 µM (inactive)

Question: And the GI50 [22]?
Answer: > 100 µM (inactive)

Question: And the GI50 [23]?
Answer: > 100 µM (inactive)

Question: And the GI50 [24]?
Answer: > 100 µM (inactive)

Question: And the GI50 [25]?
Answer: > 100 µM (inactive)

Question: What about the GI50 [26] of the same compound?
Answer: > 100 µM (inactive)

Question: And the GI50 [27]?
Answer: > 100 µM (inactive)

Question: And the GI50 [28]?
Answer: > 100 µM (inactive)

Question: What about the GI50 [29] of the same compound?
Answer: > 100 µM (inactive)

Question: And the GI50 [30]?
Answer: > 100 µM (inactive)

Question: And the GI50 [31]?
Answer: > 100 µM (inactive)

Question: And the GI50 [32]?
Answer: > 100 µM (inactive)

Question: And the GI50 [33]?
Answer: > 100 µM (inactive)

Question: What about the GI50 [34] of the same compound?
Answer: > 100 µM (inactive)

Question: What about the GI50 [35] of the same compound?
Answer: > 100 µM (inactive)

Question: What about the GI50 [36] of the same compound?
Answer: > 100 µM (inactive)

Question: What about the GI50 [37] of the same compound?
Answer: > 100 µM (inactive)

Question: And the GI50 [38]?
Answer: > 100 µM (inactive)

Question: And the GI50 [39]?
Answer: > 100 µM (inactive)

Question: And the GI50 [40]?
Answer: > 100 µM (inactive)

Question: And the GI50 [41]?
Answer: > 100 µM (inactive)

Question: What about the GI50 [42] of the same compound?
Answer: > 100 µM (inactive)

Question: What about the GI50 [43] of the same compound?
Answer: > 100 µM (inactive)

Question: What about the GI50 [44] of the same compound?
Answer: > 100 µM (inactive)

Question: What about the GI50 [45] of the same compound?
Answer: > 100 µM (inactive)

Question: What about the GI50 [46] of the same compound?
Answer: > 100 µM (inactive)

Question: And the GI50 [47]?
Answer: > 100 µM (inactive)

Question: And the GI50 [48]?
Answer: > 100 µM (inactive)

Question: What about the GI50 [49] of the same compound?
Answer: > 100 µM (inactive)

Question: What about the GI50 [50] of the same compound?
Answer: > 100 µM (inactive)

Question: What about the GI50 [51] of the same compound?
Answer: > 100 µM (inactive)

Question: What about the GI50 [52] of the same compound?
Answer: > 100 µM (inactive)

Question: What about the GI50 [53] of the same compound?
Answer: > 100 µM (inactive)

Question: CN1CC(=O)N(C)c2[nH]cnc2C1=O was tested. Which GI50 [1] did it give?
Answer: > 100 µM (inactive)

Question: What about the GI50 [2] of the same compound?
Answer: > 100 µM (inactive)

Question: And the GI50 [3]?
Answer: > 100 µM (inactive)

Question: And the GI50 [4]?
Answer: > 100 µM (inactive)

Question: And the GI50 [6]?
Answer: > 100 µM (inactive)

Question: What about the GI50 [7] of the same compound?
Answer: > 100 µM (inactive)

Question: And the GI50 [8]?
Answer: > 100 µM (inactive)

Question: What about the GI50 [54] of the same compound?
Answer: > 100 µM (inactive)

Question: And the GI50 [9]?
Answer: > 100 µM (inactive)

Question: And the GI50 [55]?
Answer: > 100 µM (inactive)

Question: What about the GI50 [10] of the same compound?
Answer: > 100 µM (inactive)

Question: And the GI50 [12]?
Answer: > 100 µM

Question: What about the GI50 [13] of the same compound?
Answer: > 100 µM (inactive)

Question: What about the GI50 [14] of the same compound?
Answer: > 100 µM (inactive)

Question: And the GI50 [17]?
Answer: > 100 µM (inactive)

Question: And the GI50 [18]?
Answer: > 100 µM (inactive)

Question: And the GI50 [19]?
Answer: > 100 µM (inactive)

Question: And the GI50 [21]?
Answer: > 100 µM (inactive)

Question: And the GI50 [22]?
Answer: > 100 µM (inactive)

Question: What about the GI50 [23] of the same compound?
Answer: > 100 µM (inactive)

Question: And the GI50 [24]?
Answer: > 100 µM (inactive)

Question: And the GI50 [25]?
Answer: > 100 µM (inactive)

Question: What about the GI50 [26] of the same compound?
Answer: > 100 µM (inactive)

Question: What about the GI50 [27] of the same compound?
Answer: > 100 µM (inactive)

Question: What about the GI50 [28] of the same compound?
Answer: > 100 µM (inactive)

Question: What about the GI50 [29] of the same compound?
Answer: > 100 µM (inactive)

Question: And the GI50 [30]?
Answer: > 100 µM (inactive)

Question: And the GI50 [32]?
Answer: > 100 µM (inactive)

Question: What about the GI50 [33] of the same compound?
Answer: > 100 µM (inactive)

Question: What about the GI50 [34] of the same compound?
Answer: > 100 µM (inactive)

Question: And the GI50 [35]?
Answer: > 100 µM (inactive)

Question: What about the GI50 [36] of the same compound?
Answer: > 100 µM (inactive)

Question: And the GI50 [37]?
Answer: > 100 µM (inactive)

Question: What about the GI50 [38] of the same compound?
Answer: > 100 µM (inactive)

Question: And the GI50 [39]?
Answer: > 100 µM (inactive)

Question: And the GI50 [40]?
Answer: > 100 µM (inactive)

Question: What about the GI50 [41] of the same compound?
Answer: > 100 µM (inactive)

Question: And the GI50 [42]?
Answer: > 100 µM (inactive)

Question: What about the GI50 [43] of the same compound?
Answer: > 100 µM (inactive)

Question: And the GI50 [56]?
Answer: > 100 µM (inactive)

Question: And the GI50 [44]?
Answer: > 100 µM (inactive)

Question: And the GI50 [45]?
Answer: > 100 µM (inactive)

Question: And the GI50 [57]?
Answer: > 100 µM (inactive)

Question: What about the GI50 [46] of the same compound?
Answer: > 100 µM (inactive)

Question: What about the GI50 [47] of the same compound?
Answer: > 100 µM (inactive)

Question: What about the GI50 [48] of the same compound?
Answer: > 100 µM (inactive)

Question: And the GI50 [49]?
Answer: > 100 µM (inactive)

Question: What about the GI50 [50] of the same compound?
Answer: > 100 µM (inactive)

Question: And the GI50 [52]?
Answer: > 100 µM (inactive)

Question: What about the GI50 [58] of the same compound?
Answer: > 100 µM (inactive)

Question: And the GI50 [53]?
Answer: 80.9 µM (inactive)
